# Experimental data taken from patent US20080004290A1, “Anti-Cancer Agents” (THE UNIVERSITY OF QUEENSLAND, priority 2003, published 2008).
# Read-outs that look alike come from different tables or passages of the source.
# Assays:
# [1] = system: NFF, neonatal foreskin fibroblasts; experiment: Cell survival assay (clonogenic survival, SRB), normal cells; format: cell-based, human; conditions: SRB
# Description: (§1) The cytotoxicities of the compounds of the invention were determined by clonogenic survival of human cancer cells (MM96L, melanoma) and human normal cells (NFF, neonatal foreskin fibroblasts). Cells were incubated with the compounds at various concentrations of compound (0.01-10 μg/mL) for 24 hours, washed, and then grown for a further four days in the absence of hydroxamic acid before determining cell survival by cell count. The final readout involved staining with sulforhodamine B (SRB), a cost-effective method amenable to automation and high throughput analysis. At the technical level, “cell sensitivity” is often inferred from short term (1-2 day) observations such as apoptosis, which may not be a satisfactory model of clonogenic survival.
# (§2) Cell Lines and Culture Medium. All cell lines used in this study have been described previously (Parsons et al., 1986; Todaro et al., 1980; Glenn et al., 2004). All cell lines were cultured in 10% heat-inactivated foetal calf serum (CSL, Australia) in RPMI 1640 medium supplemented with 100 U/mL penicillin, 100 μg/mL streptomycin, and 3 mM HEPES at 5% CO2, 99% humidity at 37° C. Primary human fibroblasts were obtained from neonatal foreskins and cultured in the above medium. Routine mycoplasma tests were performed using Hoechst stain^i and were always negative.
# (§3) Cell Survival Assay. Cells were plated into 96-well microtitre plates at 5×10^3 cells/well, and allowed to adhere overnight. Test compounds were added to culture medium at the indicated concentrations, and plates incubated in the above conditions for 24 hours. Following this incubation period, compounds and media were removed, and replaced with fresh culture medium. Cells were then grown for a further 72 hours before assay using sulforhodamine B (SRB; Sigma, St. Louis, Mo.) as previously described. Briefly, the culture medium was removed from the 96-well microtitre plates and the plates washed twice with phosphate buffered saline (PBS), before the cells were fixed with methylated spirits for 15 minutes. The plates were then rinsed with tap water and the fixed cells stained with 50 μL/well of SRB solution (0.4% sulforhodamine B (w/v) in 1% (v/v) acetic acid) over a period of 1 hour. The SRB solution was then removed from the wells and the plates rapidly washed two times with 1% (v/v) acetic acid. Protein bound dye was then solubilised with the addition of 100 μL of 10 mM unbuffered Tris, and incubated for 15 min at 25° C. Plates were then read at 564 nm on a VERSA max tunable microplate reader (Molecular Devices, Sunnyvale, Calif.).
# [2] = system: MM96L melanoma cells; experiment: Cell survival assay (clonogenic survival, SRB); format: cell-based, human; conditions: for SI (Selectivity Index = IC50 (NFF)/IC50 (MM96L)): NFF vs MM96L
# Description: as §1, §2, §3
# [3] = NFF normal fibroblasts, 24 h with compound, further 72 h growth, read-out: IC50 (uM) NFF
# [4] = MM96L melanoma, 24 h with compound, further 72 h growth, SRB, read-out: IC50 (uM) MM96L
# [5] = Homo sapiens, Fibroblast, NFF normal fibroblasts, 24 h with compound, further 72 h growth, read-out: IC50 (uM) NFF
# [6] = Homo sapiens, MM96L, MM96L melanoma, 24 h with compound, further 72 h growth, SRB, read-out: IC50 (uM) MM96L
# [7] = Homo sapiens, MM96L, most preferred compounds, exemplary examples, read-out: potency of IC50 against the MM96 melanoma cells
# [8] = Table 5, 24 hours with compound, further growth, read-out: IC50 NFF
# [9] = Table 5, 24 hours with compound, further growth, SRB, read-out: IC50 MM96L
# [10] = Table 5, Selectivity Index = IC50 (NFF)/IC50 (MM96L)
# [11] = Homo sapiens, Fibroblast, 24 h, Table 6, 24 hours with compound, further growth, read-out: IC50 (μM) NFF
# [12] = Homo sapiens, MM96L, 24 h, Table 6, 24 hours with compound, further growth, SRB, read-out: IC50 (μM) MM96L
# [13] = Table 6, IC50 (NFF)/IC50 (MM96L)
# [14] = Table 8, 24 hours with compound, further growth, read-out: IC50 (μM) NFF
# [15] = Table 8, 24 hours with compound, further growth, SRB, read-out: IC50 (μM) MM96
# [16] = Table 8, IC50 (NFF)/IC50 (MM96L)
# [17] = Table 6, 24 hours with compound, further growth, read-out: IC50 (μM) NFF
# [18] = Table 6, 24 hours with compound, further growth, SRB, read-out: IC50 (μM) MM96L
smiles,measurement,setting,value
O=C(/C=C/c1ccccc1)N[C@@H](CCCCCC(=O)NO)C(=O)NCc1ccccc1 [Example 153],IC50,[1]; [3],0.99 µM
same,IC50,[2]; [4],0.731 µM
same,SI (Selectivity Index = IC50 (NFF)/IC50 (MM96L)),[2],1.4
O=C(CCCCC[C@H](NC(=O)OCc1ccccc1)C(=O)Nc1ccc(-c2ccccc2)cc1)NO [Example 160],IC50,[1]; [5],2.21 µM
same,IC50,[2]; [6],0.331 µM
same,IC50,[2]; [7],≤ 0.5 µM
same,SI (Selectivity Index = IC50 (NFF)/IC50 (MM96L)),[2],6.7
Cc1cc(C)cc(C(=O)N[C@@H](CSCCCC(=O)NO)C(=O)NCc2ccccc2)c1 [Example 26],IC50,[1]; [8],10.9 ± 0.9 µM
same,IC50,[2]; [9],2 ± 0.4 µM
same,Selectivity,[2]; [10],5.5
CN(C)c1ccc(NC(=O)[C@H](CCCCCC(=O)NO)NC(=O)/C=C/c2ccccc2)cc1 [Example 150],IC50,[1]; [5],0.24 µM
same,IC50,[2]; [6],0.165 µM
same,SI (Selectivity Index = IC50 (NFF)/IC50 (MM96L)),[2],1.5
CN(C)c1ccc(C(=O)N[C@@H](CSCCCC(=O)NO)C(=O)N(Cc2ccccc2)Cc2ccccc2)cc1 [Example 74],IC50,[1]; [11],15.3 ± 0.6 µM
same,IC50,[2]; [12],2.3 ± 0.2 µM
same,Selectivity,[2]; [13],6.5
CN(C)c1ccc(C(=O)N[C@@H](CSCCCC(=O)NO)C(=O)Nc2ccccc2-c2ccccc2)cc1 [Example 62],IC50,[1]; [11],4.4 ± 0.6 µM
same,IC50,[2]; [12],2.1 ± 0.2 µM
same,Selectivity,[2]; [13],2.1
O=C(CCCCC[C@H](NC(=O)c1ccco1)C(=O)NCc1ccccc1)NO (racemic) [Example 133],IC50,[1]; [5],4.6 ± 0.4 µM
same,IC50,[2]; [6],0.2 ± 0.1 µM
same,IC50,[2]; [7],≤ 0.5 µM
same,SI (Selectivity Index = IC50 (NFF)/IC50 (MM96L)),[2],23
CN(C)c1ccc(C(=O)N[C@@H](CSCCCC(=O)NO)C(=O)NCc2ccc(C(=O)Nc3ccc4cn[nH]c4c3)cc2)cc1 [Example 114],IC50,[1]; [14],12.2 µM
same,IC50,[2]; [15],1.5 µM
same,Selectivity,[2]; [16],8.1
O=C(CCCCC[C@H](NC(=O)OCc1ccccc1)C(=O)NCc1ccccc1)NO [Example 154],IC50,[1]; [5],1.52 µM
same,IC50,[2]; [6],1.52 µM
same,SI (Selectivity Index = IC50 (NFF)/IC50 (MM96L)),[2],1
CN(C)c1ccc(C(=O)N[C@@H](CSCCCC(=O)NO)C(=O)Nc2ccc3cc4ccccc4cc3c2)cc1 [Example 72],IC50,[1]; [11],1.14 ± 0.06 µM
same,IC50,[2]; [12],0.55 ± 0.07 µM
same,Selectivity,[2]; [13],2.1
CN(C)c1ccc(C(=O)N[C@@H](CSCCCC(=O)NO)C(=O)NCc2ccc(C(=O)Nc3cccc4c3CCCC4)cc2)cc1 [Example 118],IC50,[1]; [14],3.78 µM
same,IC50,[2]; [15],1.17 µM
same,Selectivity,[2]; [16],3.2
CN(C)c1ccc(C(=O)N[C@@H](CCCCCC(=O)NO)C(=O)NCc2ccccc2)cc1 [Example 122],IC50,[1]; [3],12 ± 2 µM
same,IC50,[2]; [4],1.6 ± 0.3 µM
same,SI (Selectivity Index = IC50 (NFF)/IC50 (MM96L)),[2],7.8
CN(C)c1ccc(C(=O)N[C@@H](CSCCCC(=O)NO)C(=O)NCCc2ccc(Br)cc2)cc1 [Example 86],IC50,[1]; [17],2.6 ± 0.3 µM
same,IC50,[2]; [18],1 ± 0.1 µM
same,Selectivity,[2]; [13],2.6
Cc1ccnc(NC(=O)[C@H](CSCCCC(=O)NO)NC(=O)c2ccc(N(C)C)cc2)c1 [Example 79],IC50,[1]; [11],11.2 ± 0.7 µM
same,IC50,[2]; [12],1.12 ± 0.06 µM
same,Selectivity,[2]; [13],10.0
CN(C)c1ccc(C(=O)N[C@@H](CSCCCC(=O)NO)C(=O)NCCc2ccccc2)cc1 [Example 83],IC50,[1]; [17],2.7 ± 0.3 µM
same,IC50,[2]; [18],1.4 ± 0.1 µM
same,Selectivity,[2]; [13],1.9
CN(C)c1ccc(C(=O)N[C@@H](CCCCCC(=O)NO)C(=O)NC2(Cc3ccccc3)CCCC2)cc1 [Example 128],IC50,[1]; [5],3 ± 0.3 µM
same,IC50,[2]; [6],0.9 ± 0.2 µM
same,SI (Selectivity Index = IC50 (NFF)/IC50 (MM96L)),[2],3.5
O=C(/C=C/c1ccccc1)N[C@@H](CSCCCC(=O)NO)C(=O)NCc1ccccn1 [Example 102],IC50,"[1]; Homo sapiens, Fibroblast, 24 h, Table 7, 24 hours with compound, further growth, read-out: IC50 (μM) NFF",4.2 ± 0.4 µM
same,IC50,"[2]; Homo sapiens, MM96L, 24 h, Table 7, 24 hours with compound, further growth, SRB, read-out: IC50 (μM) MM96L",0.8 ± 0.3 µM
same,Selectivity,"[2]; Table 7, IC50 (NFF)/IC50 (MM96L)",5.3
O=C(CCCSC[C@H](NC(=O)c1cccc(O)c1O)C(=O)NCc1ccccc1)NO [Example 31],IC50,[1]; [8],4.5 ± 0.6 µM
same,IC50,[2]; [9],32 ± 3 µM
same,Selectivity,[2]; [10],0.14
